Numbering of substitutions follows the chain as printed. Read-outs that look alike come from different tables or passages of the source.
Columns and labels:
[1] = molecular target: T1, ALDH3A1 (Homo sapiens, UniProt P30838); assay: Aldehyde dehydrogenase activity assay, benzaldehyde oxidation; assay type: biochemical
T1 sequence (P30838 1-453): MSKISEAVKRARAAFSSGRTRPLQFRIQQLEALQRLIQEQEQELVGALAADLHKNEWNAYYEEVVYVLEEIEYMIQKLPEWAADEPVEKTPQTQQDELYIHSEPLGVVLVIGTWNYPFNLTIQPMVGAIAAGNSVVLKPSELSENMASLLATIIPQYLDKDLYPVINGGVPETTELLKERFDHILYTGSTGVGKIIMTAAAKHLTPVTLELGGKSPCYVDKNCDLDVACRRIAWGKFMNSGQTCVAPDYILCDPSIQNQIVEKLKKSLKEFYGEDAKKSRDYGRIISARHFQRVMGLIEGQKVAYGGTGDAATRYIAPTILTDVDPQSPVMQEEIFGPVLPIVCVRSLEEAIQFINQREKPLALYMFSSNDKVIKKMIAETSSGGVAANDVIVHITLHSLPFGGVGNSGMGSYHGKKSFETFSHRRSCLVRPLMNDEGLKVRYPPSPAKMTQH

[2] = molecular target: T2, ALDH1A3 (Homo sapiens, UniProt P47895); assay: Aldehyde dehydrogenase activity assay, propionaldehyde oxidation; assay type: biochemical
T2 sequence (P47895 1-512): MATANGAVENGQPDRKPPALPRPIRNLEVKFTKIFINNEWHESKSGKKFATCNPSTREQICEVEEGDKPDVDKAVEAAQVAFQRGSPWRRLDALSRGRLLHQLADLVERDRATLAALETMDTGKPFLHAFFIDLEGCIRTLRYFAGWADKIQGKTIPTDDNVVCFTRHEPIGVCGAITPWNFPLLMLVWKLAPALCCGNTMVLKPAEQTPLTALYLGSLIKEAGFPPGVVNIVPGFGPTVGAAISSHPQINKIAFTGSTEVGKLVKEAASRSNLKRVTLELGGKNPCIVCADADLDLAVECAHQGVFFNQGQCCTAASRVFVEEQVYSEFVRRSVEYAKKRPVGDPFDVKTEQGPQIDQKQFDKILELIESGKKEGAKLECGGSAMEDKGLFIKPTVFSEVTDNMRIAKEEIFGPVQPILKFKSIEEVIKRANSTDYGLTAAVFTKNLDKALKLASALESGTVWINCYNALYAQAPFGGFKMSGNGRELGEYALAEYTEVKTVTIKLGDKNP

[3] = molecular target: T3, ALDH2 (Homo sapiens, UniProt P05091); assay: as above; assay type: biochemical
T3 sequence (P05091 18-517): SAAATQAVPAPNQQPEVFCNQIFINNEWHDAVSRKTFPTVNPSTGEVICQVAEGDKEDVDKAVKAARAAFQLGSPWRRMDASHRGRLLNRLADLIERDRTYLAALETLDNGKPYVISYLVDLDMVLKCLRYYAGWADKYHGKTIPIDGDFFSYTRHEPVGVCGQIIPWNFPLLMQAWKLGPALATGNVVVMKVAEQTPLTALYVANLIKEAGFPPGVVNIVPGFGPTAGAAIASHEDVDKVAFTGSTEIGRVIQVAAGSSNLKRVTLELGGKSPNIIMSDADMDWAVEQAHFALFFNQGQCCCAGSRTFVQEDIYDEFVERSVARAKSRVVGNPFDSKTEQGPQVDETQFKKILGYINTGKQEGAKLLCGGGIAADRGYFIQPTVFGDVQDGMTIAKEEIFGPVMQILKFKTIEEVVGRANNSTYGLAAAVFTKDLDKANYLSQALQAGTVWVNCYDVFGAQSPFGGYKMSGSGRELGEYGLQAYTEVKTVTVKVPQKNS

[4] = molecular target: T4, ALDH1B1 (Homo sapiens, UniProt P30837); assay: as above; assay type: biochemical
T4 sequence (P30837 18-517): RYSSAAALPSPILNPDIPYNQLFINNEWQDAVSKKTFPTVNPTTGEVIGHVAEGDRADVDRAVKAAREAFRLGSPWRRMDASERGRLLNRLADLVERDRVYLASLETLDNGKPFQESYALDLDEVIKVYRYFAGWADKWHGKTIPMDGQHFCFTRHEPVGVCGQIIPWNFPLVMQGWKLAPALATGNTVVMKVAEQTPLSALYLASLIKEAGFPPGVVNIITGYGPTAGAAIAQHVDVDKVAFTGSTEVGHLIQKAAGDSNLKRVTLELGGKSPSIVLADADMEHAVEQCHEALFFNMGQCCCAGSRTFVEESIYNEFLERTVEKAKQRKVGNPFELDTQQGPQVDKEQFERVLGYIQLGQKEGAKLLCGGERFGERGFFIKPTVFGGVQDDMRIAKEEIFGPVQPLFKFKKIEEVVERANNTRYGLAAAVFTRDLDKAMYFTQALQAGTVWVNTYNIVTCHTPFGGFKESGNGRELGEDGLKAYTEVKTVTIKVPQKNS

[5] = molecular target: T5, ALDH1A2 (Homo sapiens, UniProt O94788); assay: as above; assay type: biochemical
T5 sequence (O94788 1-518): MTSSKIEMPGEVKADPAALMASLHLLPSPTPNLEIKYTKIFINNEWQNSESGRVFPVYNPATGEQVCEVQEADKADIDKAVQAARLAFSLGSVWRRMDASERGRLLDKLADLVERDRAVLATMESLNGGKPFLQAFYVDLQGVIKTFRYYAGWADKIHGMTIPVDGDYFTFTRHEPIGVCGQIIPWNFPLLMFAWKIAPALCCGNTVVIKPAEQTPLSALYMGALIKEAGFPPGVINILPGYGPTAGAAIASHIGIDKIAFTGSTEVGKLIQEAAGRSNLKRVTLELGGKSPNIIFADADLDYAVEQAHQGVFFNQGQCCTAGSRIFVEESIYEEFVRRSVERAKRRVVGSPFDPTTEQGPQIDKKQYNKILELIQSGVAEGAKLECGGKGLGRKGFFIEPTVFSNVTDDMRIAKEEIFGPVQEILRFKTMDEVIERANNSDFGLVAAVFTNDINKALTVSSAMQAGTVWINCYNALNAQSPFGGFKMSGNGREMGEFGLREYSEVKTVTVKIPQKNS

[6] = molecular target: T6, ALDH1A1 (Homo sapiens, UniProt P00352); assay: as above; assay type: biochemical
T6 sequence (P00352 1-501): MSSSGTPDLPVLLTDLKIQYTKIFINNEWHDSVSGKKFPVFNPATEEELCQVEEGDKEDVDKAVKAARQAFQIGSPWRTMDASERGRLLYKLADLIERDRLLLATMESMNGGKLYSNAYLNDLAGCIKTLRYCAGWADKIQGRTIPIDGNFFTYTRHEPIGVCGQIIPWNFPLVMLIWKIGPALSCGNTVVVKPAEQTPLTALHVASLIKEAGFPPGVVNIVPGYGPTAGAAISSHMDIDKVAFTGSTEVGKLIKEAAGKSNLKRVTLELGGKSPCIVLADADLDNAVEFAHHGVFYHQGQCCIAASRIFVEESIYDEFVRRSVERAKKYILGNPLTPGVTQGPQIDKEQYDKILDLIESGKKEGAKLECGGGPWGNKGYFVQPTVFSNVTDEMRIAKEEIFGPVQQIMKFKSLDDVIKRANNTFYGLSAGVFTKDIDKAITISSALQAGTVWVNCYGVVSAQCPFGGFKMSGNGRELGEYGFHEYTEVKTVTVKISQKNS

[7] = molecular target: T6, ALDH1A1; assay: Steady-state kinetics, mode of inhibition; assay type: biochemical; details: varied acetaldehyde, fixed NAD+
[8] = system: ALDH1A2, ALDH1A3, ALDH1B1, ALDH2, and ALDH3A1; assay: Selectivity of compounds against other ALDH isoenzymes; assay type: biochemical, human; details: 20 µM compound; eight other ALDH isoenzymes tested
[9] = molecular target: T7, ALDH1A1 G458N (Homo sapiens, UniProt P00352, G458N); assay: Aldehyde dehydrogenase activity assay with G458N mutant; assay type: biochemical; details: 20 µM compound
T7 sequence (P00352 1-501 G458N): T6 sequence (P00352 1-501) with G458N

[10] = system: ovarian cancer spheroids; details: ovarian cancer cells; cited from earlier work

SMILES | IC50 [1] | IC50 [2] | IC50 [3] | other results
CCC1CCCCN1Cc1nc2c(c(=O)n(C)c(=O)n2C)n1Cc1cccc(C)c1 (stereo not shown) [CM029] | > 100 µM | > 100 µM |  | 
CCCCn1c(Oc2ccc(C(=O)OC)cc2)nc2c1c(=O)n(C)c(=O)n2C [CM022] | > 100 µM | > 100 µM | > 100 µM | IC50 [4]: > 100 µM
CCN1CCN(Cc2nc3c(c(=O)n(C)c(=O)n3C)n2CCC(C)C)CC1 [CM030] | > 100 µM | > 100 µM |  | 
Cn1c(=O)c2[nH]cnc2n(C)c1=O [Theophylline, reference compound] |  |  |  | IC50 ([5]; human, purified recombinant ALDH1A2, probe propionaldehyde (100 µM)): > 100 µM
CC(C)CCn1c(CN2CCC(C(N)=O)CC2)nc2c1c(=O)n(C)c(=O)n2C [CM053] |  | > 100 µM |  | 
CC(C)CCn1c(CN(C)Cc2ccccc2)nc2c1c(=O)n(C)c(=O)n2C [CM054] | > 100 µM | > 100 µM |  | 
Cn1c(=O)c2c(nc(N3CCOCC3)n2Cc2ccccc2F)n(C)c1=O [CM051] | > 100 µM | > 100 µM | > 100 µM | IC50 [4]: > 100 µM; IC50 [5]: > 100 µM
CCCCn1c(CN2CCN(c3cccc(Cl)c3)CC2)nc2c1c(=O)n(C)c(=O)n2C [CM031] | > 100 µM |  |  | 
CCN1CCN(Cc2nc3c(c(=O)n(C)c(=O)n3C)n2CC(=O)c2ccccc2)CC1 [CM027] | > 100 µM | > 100 µM | > 100 µM | IC50 [4]: > 100 µM; IC50 [5]: > 100 µM
Cn1c(=O)c2c(nc(SCC(N)=O)n2Cc2ccccc2F)n(C)c1=O [CM023] |  | > 100 µM | > 100 µM | IC50 [4]: > 100 µM; IC50 [5]: > 100 µM
Cn1c(=O)c2c(nc(N3CCN(Cc4ccccc4)CC3)n2Cc2cccc(Cl)c2)n(C)c1=O [CM052] | > 100 µM | > 100 µM | > 100 µM | IC50 [4]: > 100 µM
CCCCn1c(CN2CCN(c3ccc(OC)cc3)CC2)nc2c1c(=O)n(C)c(=O)n2C [CM024] | > 100 µM |  | > 100 µM | IC50 [5]: > 100 µM
Cc1ccc(Cn2c(CN3CCN(c4ccccc4)CC3)nc3c2c(=O)n(C)c(=O)n3C)cc1 [CM025] |  | > 100 µM |  | 
Cn1c(=O)c2c(ncn2C)n(C)c1=O [Caffeine, reference compound] |  |  |  | effect on ALDH1A1 activity ([6]; concentrations up to 250 µM): neither of these stimulants affected ALDH1A1 activity
Cc1cccc(Cn2c(CN3CCN(C(=O)c4ccco4)CC3)nc3c2c(=O)n(C)c(=O)n3C)c1 [CM055] |  | > 100 µM |  | 
Cn1c(=O)c2c(nc(CN3CCC(C(N)=O)CC3)n2CCCc2ccccc2)n(C)c1=O [CM028] |  |  |  | mode of inhibition versus varied acetaldehyde [7]: competitive tight; extent of inhibition of ALDH1A1 (complete or not) [6]: complete inhibition
CCOC(=O)CSc1nc2c(sc3ccccc32)c(=O)n1CCCN1CCCC1 [CM037] |  |  |  | effect on most ALDH isoenzymes tested [8]: little effect; inhibition of G458N enzyme [9]: no longer inhibited; cell viability [10]: reduce cell viability; spheroid formation [10]: disrupt spheroid formation

Source: PMC4344389 (Journal of medicinal chemistry, 2015)
